Here are results for 4 compounds from article PMC3326523, “Histone Recognition and Large-Scale Structural Analysis of the Human Bromodomain Family” (Cell, 2012).

Like-named read-outs stand apart in the source and are kept apart here. Where no end group is shown, it is not given here.

The target in one assay is T1, CREBBP (Homo sapiens, UniProt Q92793).
T1 construct: His6 tag with TEV cleavage site (N, cleaved yes); made in house; host or cells: E. coli BL21(DE3)-R3
The assay is described as follows: Isothermal titration calorimetry (ITC) of histone peptides. The format is binding.

A further assay has as its system 33 representative BRDs. The assay is described as follows: SPOT peptide array of singly acetylated histone peptides. The format is binding, human. The note with it: His6-tagged BRDs 1 μM; in words. The protocol:
Peptides were synthesized on cellulose membranes using a MultiPep SPOT peptide arrayer (Intavis). His6-tagged BRDs were added to a final concentration of 1 μM, and blots were developed using an ECL kit (Thermo Scientific) following the manufacturer's protocol.
Three different types of SPOT membrane were utilized in order to probe preferences of BRD recognition sites: the first array contained peptides from all four core histones (H2A, H2B, H3 and H4) covering all possible lysine acetylation sites, with peptide sizes ranging from 10 to 14 amino acids. […]
Peptides for the first two arrays were synthesized directly on cellulose membranes (Intavis) using a MultiPep SPOT peptide arrayer (Intavis) and commercially available standard (Intavis) or modified (Bachem) L-amino acid precursors as previously described ([Nady et al., 2008]). The quality of the synthesized array was evaluated as follows: i) immune reactive peptides were identified by incubation of the membrane with an anti-His antibody in the absence of any His6-tagged BRD. […]
Each membrane was washed 3 times in PBST, blocked for 1 hr with 10% milk in PBST, and washed again 3 × 5 min with PBST. […] Chem-illuminescence was detected with an Image reader (Fujifilm LAS-4000 ver.2.0) with an incremental exposure time of 5 min for a total of 80 min. […]

T1 sequence (Q92793 with tags, fused parts or gaps): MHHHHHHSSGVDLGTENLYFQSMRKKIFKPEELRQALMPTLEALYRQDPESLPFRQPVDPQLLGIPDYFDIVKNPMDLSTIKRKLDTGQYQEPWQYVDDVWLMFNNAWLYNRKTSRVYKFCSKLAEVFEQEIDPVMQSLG

`CC(=O)NCCCC[C@H](NC(=O)CNC(=O)CNC(=O)[C@@H](NC(=O)[C@H](CO)NC(=O)[C@@H](N)CCCCN)[C@@H](C)O)C(=O)N[C@@H](C)C(=O)N1CCC[C@H]1C(=O)N[C@@H](CCCNC(=N)N)C(=O)N[C@@H](CCCCN)C(=O)N[C@@H](CCC(N)=O)C(=O)N[C@@H](Cc1ccc(O)cc1)C(=O)O` [H3K14ac]: at CREBBP, binding was put at a Kd of 733 µM.
Regarding “H2BK85: promiscuous H2BK85-containing array peptide (AHYNK(Ac)RSTITSRE)”, the “interaction with BRDs in SPOT array of singly acetylated peptides” value in the assay with 33 representative BRDs is on record as “interacted with most BRDs”.
`CC(=O)NCCCC[C@H](NC(=O)CNC(=O)CNC(=O)[C@@H](NC(=O)[C@H](COP(=O)(O)O)NC(=O)[C@@H](N)CCCCN)[C@@H](C)O)C(=O)N[C@@H](C)C(=O)N1CCC[C@H]1C(=O)N[C@@H](CCCNC(=N)N)C(=O)N[C@@H](CCCCNC(C)=O)C(=O)N[C@@H](CCC(N)=O)C(=O)N[C@@H](Cc1ccc(O)cc1)C(=O)O` [H3pS10K14acK18ac]: the Kd on CREBBP (ITC, 10 or 15°C, 50 mM HEPES pH 7.5, 150 mM NaCl, read-out: KD of CREBBP) came to 131 µM.
In the case of “H2AK36: promiscuous H2AK36-containing array peptide (LLRK(Ac)GNYSERVGA)”, the “interaction with BRDs in SPOT array of singly acetylated peptides” value with 33 representative BRDs is on record as “interacted with most BRDs”.
